According to PMC9745799, “Polymyxin Stereochemistry and Its Role in Antibacterial Activity and Outer Membrane Disruption” (ACS Infectious Diseases, 2022):
≈ marks a conversion by molar mass, not a printed value. Where “and” joins values, the source holds several entries; their conditions need not be identical. Equal entries are not always repeated. Where two headings read alike, the source gives them in different places. Positions of bridges follow the written chain, without caps; N, C: chain ends. Non-standard residues stand in square brackets, D forms with d. Residues, ends and D or L forms follow the SMILES beside them. *: point of attachment. dDab = NCC[C@@H](N)C(=O)O; Heptanoyl = CCCCCCC(=O)*; Dab = NCC[C@H](N)C(=O)O

Columns and labels:
[1] = system: polymyxin-sensitive E. coli ATCC 25922; test: microbe, parasite or virus in culture; assay type: cell-based
Experimental: (§1) Selected Gram-negative bacterial strains were taken from glycerol stocks and grown overnight on blood agar. A single colony was inoculated in TSB broth at 37 °C until an optical density of 0.5 at 600 nm (OD600) was reached. The bacterial suspension was diluted in freshly prepared CAMHB to 10^6 CFU/mL. Compounds were diluted along the plate, using 25 μL of CAMHB for each dilution. Antibiotic concentrations were prepared separately in a multiwell reservoir, including a control without antibiotic. Of each antibiotic stock, 25 μL was added to three columns to obtain triplicates for every condition. To each 50 μL containing well was then added 50 μL of the 10^6 CFU/mL bacterial suspension, and the plates were sealed with breathable seals. After incubation for 18 h at 37 °C while shaking, the seals were removed and the density of the bacterial suspensions was measured at 600 nm (OD600) using a Tecan Spark plate reader. The OD600 values were transformed to a 2D gradient with the negative control as the minimum and the positive control as the maximum. The FICI was calculated using the following equation: [drawing 1] with MSCant and MSCcomp indicating the optimal synergistic concentration of antibiotic and compound and MICant and MICcomp, the corresponding MICs of the individual compounds. An FICI ≤ 0.5 indicates synergy.[48]

[2] = system: E. coli ATCC 25922 (smooth LPS); test: NPN uptake assay (outer membrane disruption); assay type: cell-based; details: NPN fluorescence after 1 h at RT, 5 mM HEPES pH 7.2 + 20 mM glucose, triplicates, result in words
Experimental: (§2) Bacteria were taken from glycerol stocks and grown in TSB overnight. Cultures were diluted either 50 or 100 times in Lysogeny Broth (LB) and grown at 37 °C to an OD600 of 0.5. Test compounds were prepared in HEPES buffer (5 mM, pH 7.2 + 20 mM glucose) and serially diluted (25 μL per well) on 1/2 the area of black 96-well plates with a transparent bottom. N-Phenyl-1-naphthylamine (NPN) was dissolved in acetone (0.5 mM) and diluted to 40 μM in HEPES buffer (5 mM, pH 7.2 + 20 mM glucose). 25 μL of the NPN solution was added to each well. The bacterial suspension was spin down (1000g, 10 min), and the remaining cell pellet was resuspended in half the original volume of HEPES buffer (5 mM, pH 7.2 + 20 mM glucose). 50 μL of bacterial suspension was added to each well. NPN fluorescence was measured after 1 h of incubation at RT with λex 355 ± 20 nm and λem 420 ± 20 nm. The measured fluorescence signal was corrected for NPN fluorescence in the absence of compounds (bacteria in buffer + NPN) and presented as relative fluorescence units (RFUs).

[3] = system: E. coli BW25113 (rough LPS); test: NPN uptake assay (outer membrane disruption); assay type: cell-based; details: NPN fluorescence after 1 h at RT, 5 mM HEPES pH 7.2 + 20 mM glucose, triplicates, result in words
Experimental: as §2

[4] = system: LPS from E. coli (O55:B5); test: Isothermal titration calorimetry (ITC), LPS binding; details: compound (1 mM) into LPS (20 µM), 20 mM HEPES pH 7, 37 °C, mean and SD of three experiments; for ΔG, fitted parameter for single site binding / ΔH, fitted parameter for single site binding / Kd: one-site model; for Kd: read-out: KD, fitted parameter for single site binding
Experimental: Stock solutions of LPS (10 mg/mL, 0.5 mM) were prepared in 20 mM HEPES at pH 7 by suspension, sonication, and temperature cycling between 4 and 60 °C and stored overnight prior to use. LPS from E. coli (O55:B5) was used. Lipopeptide solutions (1 mM in 20 mM HEPES, pH 7) were titrated into a suspension of LPS (0.020 mM) in the same buffer. Control titrations included the titration of peptide into buffer and buffer into the LPS suspension to determine the corresponding heat of dilution. All binding experiments were performed using a MicroCal PEAQ-ITC Automated microcalorimeter (Malvern Panalytical Ltd., Malvern, UK). The samples were equilibrated to 37 °C prior to measurement. The titrations were conducted at 37 °C under constant stirring at 750 rpm. Each experiment consisted of an initial injection of 0.3 μL followed by 25 separate injections of 1.5 μL into the sample cell of 200 μL. The time between each injection was 180 s, and the measurements were performed with the reference power set at 5 μcal s^–1 and the feedback mode set at “low”. For all calculations performed, an estimated molecular weight of 20 kDa for LPS was applied. The calorimetric data thus obtained were analyzed using MicroCal PEAQ-ITC Analysis Software Version 1.20 (Malvern Panalytical Ltd., Malvern, UK), where the integrated heat signal is corrected for the heat of dilution of the titrant.

A. baumannii ATCC 19606 = assay type: cell-based
Experimental: (§3) MICs of compounds were determined following CLSI guidelines using the microbroth dilution method in polypropylene plates. Selected Gram-negative bacterial strains (see Table S2 for strain sources) were taken from glycerol stocks and grown overnight on blood agar. Individual colonies were selected and grown in Tryptic Soy Broth (TSB) to an OD600 of 0.5. Compounds were diluted in Mueller Hinton Broth (MHB) supplemented with Mg^2+ and Ca^2+ at final concentrations of 12 and 20 mg/L, respectively (CAMHB). 50 μL was used for each well, and compounds were assessed in triplicates. Bacterial culture was diluted in CAMHB to 10^6 CFU/mL, yielding 5 × 10^5 CFU/mL upon addition of 50 μL of culture to 50 μL of compound solution. Positive and negative (sterility) controls were present on each plate. Plates were sealed with a semipermeable membrane and incubated for 22 h (A. baumannii) or 18 h (other strains) under shaking at 37 °C.

E. coli ATCC 25922 = assay type: cell-based
Experimental: as §3

E. coli BW25113 = assay type: cell-based
Experimental: as §3

E. coli JW3594 (ΔwaaD) = assay type: cell-based; details: truncated LPS, CLSI microbroth dilution, CAMHB, 18 h, 37 °C, triplicate
Experimental: as §3

E. coli JW3596 (ΔwaaC) = assay type: cell-based; details: truncated LPS, CLSI microbroth dilution, CAMHB, 18 h, 37 °C, triplicate
Experimental: as §3

E. coli mcr-1 = assay type: cell-based; details: CLSI microbroth dilution, CAMHB, 18 h, 37 °C, triplicate
Experimental: as §3

K. pneumoniae ATCC 13883 = assay type: cell-based
Experimental: as §3

P. aeruginosa 2018-007 = assay type: cell-based
Experimental: as §3

P. aeruginosa ATCC 10145 = assay type: cell-based
Experimental: as §3

P. aeruginosa ATCC 27853 = assay type: cell-based
Experimental: as §3

P. aeruginosa NRZ03961 = assay type: cell-based
Experimental: as §3

[5] = system: polymyxin-resistant (mcr-1 positive) E. coli; test: microbe, parasite or virus in culture; assay type: cell-based; details: for FICI: combination with rifampicin, CAMHB, 18 h, 37 °C, OD600, FICI ≤ 0.5 indicates synergy
Experimental: as §1

[6] = system: polymyxin-resistant, mcr-1 positive E. coli; test: NPN uptake assay (outer membrane disruption); assay type: cell-based; details: E. coli mcr-1 positive; NPN fluorescence after 1 h at RT, highest concentration tested 32 μg/mL, triplicates; result in words
Experimental: as §2

[7] = E. coli ATCC 25922, checkerboard, substance alone

Row | Compound | MIC alone ([1]; ATCC 25922, 18 h) [µg/mL] | OM disruption (NPN uptake) [2] | OM disruption (NPN uptake) [3] | ΔΔH, maximum enthalpy observed after subtraction of dilution control [4] [kcal/mol] | ΔG, fitted parameter for single site binding [4] [kcal/mol] | ΔH, fitted parameter for single site binding [4] [kcal/mol] | Kd [4] [µM] | MIC (E. coli JW3594 (ΔwaaD)) [µg/mL] | MIC (E. coli JW3596 (ΔwaaC)) [µg/mL] | MIC (E. coli mcr-1) [µg/mL] | FICI ([5]; E. coli mcr-1, checkerboard) | MIC alone [1, 7] [µg/mL] | other results
1 | CC(C)C[C@H]1NC(=O)[C@H](Cc2ccccc2)NC(=O)[C@@H](CCN)NC(=O)[C@H](NC(=O)[C@@H](CCN)NC(=O)[C@H](N)[C@H](C)O)CCNC(=O)[C@@H]([C@H](C)O)NC(=O)[C@@H](CCN)NC(=O)[C@@H](CCN)NC1=O [ent-PMBN] (H-[dT][dDab][dDab][dDab]F[dL][dDab][dDab][dT]; lactam 3-C) | ≥ 256 | weak OM disruption | higher degree of OM perturbation | -4.91 ± 0.03 | -7.69 ± 0.06 | -5.2 ± 0.03 | 3.9 ± 0.4 |  |  |  |  |  | 
2 | CCCCCCC(=O)N[C@@H](CCN)C(=O)N[C@H](C(=O)N[C@@H](CCN)C(=O)N[C@H]1CCNC(=O)[C@H]([C@@H](C)O)NC(=O)[C@H](CCN)NC(=O)[C@H](CCN)NC(=O)[C@H](CC(C)C)NC(=O)[C@@H](Cc2ccccc2)NC(=O)[C@H](CCN)NC1=O)[C@@H](C)O [PmxB4, polymyxin B4] (Heptanoyl-[Dab]T[Dab][Dab][Dab][dF]L[Dab][Dab]T; lactam 4-C) | 1 | potent OM disruption | potent OM disruption | -7.86 ± 0.10 |  |  |  | 0.06 (≈ 0.051 µM) | 0.06 (≈ 0.051 µM) | 4 (≈ 3.4 µM) | 0.16 and 0.163 | 2 | MIC (A. baumannii ATCC 19606; ATCC 19606, 22 h): 0.5 µg/mL (≈ 0.425 µM); MIC (E. coli ATCC 25922; ATCC 25922, 18 h): 0.25 µg/mL (≈ 0.213 µM); MIC (E. coli BW25113; BW25113, 18 h): 0.5 µg/mL (≈ 0.425 µM); MIC (K. pneumoniae ATCC 13883; ATCC 13883, 18 h): 0.125 µg/mL (≈ 0.106 µM); MIC (P. aeruginosa 2018-007; 2018-007, 18 h): 0.5 µg/mL (≈ 0.425 µM); MIC (P. aeruginosa ATCC 10145; ATCC 10145, 18 h): 0.25 µg/mL (≈ 0.213 µM); MIC (P. aeruginosa ATCC 27853; ATCC 27853, 18 h): 0.25 µg/mL (≈ 0.213 µM); MIC (P. aeruginosa NRZ03961; NRZ03961, 18 h): 0.25 µg/mL (≈ 0.213 µM); MIC alone ([5]; E. coli mcr-1, checkerboard, substance alone): 8 µg/mL; OM disruption (NPN uptake) [6]: most effective OM disruption
3 | CC(C)C[C@@H]1NC(=O)[C@@H](Cc2ccccc2)NC(=O)[C@H](CCN)NC(=O)[C@@H](NC(=O)[C@H](CCN)NC(=O)[C@@H](N)[C@@H](C)O)CCNC(=O)[C@H]([C@@H](C)O)NC(=O)[C@H](CCN)NC(=O)[C@H](CCN)NC1=O [PMBN, polymyxin B nonapeptide, reference compound] (H-T[Dab][Dab][Dab][dF]L[Dab][Dab]T; lactam 3-C (inferred); N-terminus assumed) | ≥ 256 | potent OM disruption | potent OM disruption | -7.20 ± 0.19 | -7.24 ± 0.03 | -8.4 ± 0.25 | 8 ± 0.4 |  |  |  | ≤ 0.14 |  | 
4 | Polymyxin B sulfate [PmxB (commercial), reference compound] |  |  |  |  |  |  |  | 0.06 | 0.06 | 4 |  |  | MIC (A. baumannii ATCC 19606; A. baumannii ATCC 19606, CLSI microbroth dilution, CAMHB, 22 h, 37 °C, triplicate): 0.25 µg/mL; MIC (E. coli ATCC 25922; E. coli ATCC 25922, CLSI microbroth dilution, CAMHB, 18 h, 37 °C, triplicate): 1 µg/mL; MIC (E. coli BW25113; E. coli BW25113, CLSI microbroth dilution, CAMHB, 18 h, 37 °C, triplicate): 1 µg/mL; MIC (K. pneumoniae ATCC 13883; K. pneumoniae ATCC 13883, CLSI microbroth dilution, CAMHB, 18 h, 37 °C, triplicate): 0.25 µg/mL; MIC (P. aeruginosa 2018-007; P. aeruginosa 2018-007, CLSI microbroth dilution, CAMHB, 18 h, 37 °C, triplicate): 2 µg/mL; MIC (P. aeruginosa ATCC 10145; P. aeruginosa ATCC 10145, CLSI microbroth dilution, CAMHB, 18 h, 37 °C, triplicate): 1 µg/mL; MIC (P. aeruginosa ATCC 27853; P. aeruginosa ATCC 27853, CLSI microbroth dilution, CAMHB, 18 h, 37 °C, triplicate): 1 µg/mL; MIC (P. aeruginosa NRZ03961; P. aeruginosa NRZ03961, CLSI microbroth dilution, CAMHB, 18 h, 37 °C, triplicate): 1 µg/mL
5 | CO[C@H]1/C=C/O[C@@]2(C)Oc3c(C)c(O)c4c(O)c(c(/C=N/N5CCN(C)CC5)c(O)c4c3C2=O)NC(=O)/C(C)=C\C=C\[C@H](C)[C@H](O)[C@@H](C)[C@@H](O)[C@@H](C)[C@H](OC(C)=O)[C@@H]1C [Rifampicin, rifampicin] |  |  |  |  |  |  |  |  |  |  |  | 8 | MIC in combination (rifampicin) ([5]; E. coli mcr-1, rifampicin in combination with PMBN (4 µg/mL)): 1 µg/mL; MIC in combination (rifampicin) ([5]; E. coli mcr-1, rifampicin in combination with PmxB4 (1 µg/mL)): 0.3 µg/mL; MIC in combination (rifampicin) ([5]; E. coli mcr-1, rifampicin in combination with ent-PMBN (32 µg/mL)): 2 µg/mL; MIC in combination (rifampicin) ([5]; E. coli mcr-1, rifampicin in combination with ent-PmxB4 (8 µg/mL)): 1 µg/mL; MIC ([5]; Escherichia coli, read-out: MIC alone): 8 µg/mL; MIC in combination (rifampicin) ([1]; E. coli ATCC 25922, rifampicin in combination with PMBN (2 µg/mL)): 0.1 µg/mL; MIC in combination (rifampicin) ([1]; E. coli ATCC 25922, rifampicin in combination with PmxB4 (1 µg/mL)): 0.5 µg/mL; MIC in combination (rifampicin) ([1]; E. coli ATCC 25922, rifampicin in combination with ent-PMBN (32 µg/mL)): 2 µg/mL; MIC in combination (rifampicin) ([1]; E. coli ATCC 25922, rifampicin in combination with ent-PmxB4 (8 µg/mL)): 0.1 µg/mL; MIC ([1]; Escherichia coli, ATCC25922, E. coli ATCC 25922, checkerboard, substance alone): 8 µg/mL
